Test results from patent US12692254B2, “Benzimidazole inhibitors of PAD enzymes” (BRISTOL-MYERS SQUIBB COMPANY, priority 2018, dated 2026).

biological target: human PAD4 (hPAD4) (Homo sapiens, UniProt Q9UM07); test: RFMS human PAD4 functional assay (rapid-fire mass spectrum); format: biochemical; details: 5 nM hPAD4 enzyme, 250 μM BAEE, 50 μM Calcium; 30 min preincubation, 90 min reaction at 37° C.
Method in brief: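 PAD4 (10 nM) preincubated 30 min with compound (top final 50 μM), then BAEE substrate added in pH 7.5 HEPES buffer with DTT, 50 μM calcium, TPEN; 90 min at 37° C. After TCA quench, citrulline derivatized with phenyl glyoxal (4 mM final, 30 min, 37° C) and quantified by RapidFire MS against internal standard.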

human PAD4 (hPAD4), sequence (Q9UM07 whole entry): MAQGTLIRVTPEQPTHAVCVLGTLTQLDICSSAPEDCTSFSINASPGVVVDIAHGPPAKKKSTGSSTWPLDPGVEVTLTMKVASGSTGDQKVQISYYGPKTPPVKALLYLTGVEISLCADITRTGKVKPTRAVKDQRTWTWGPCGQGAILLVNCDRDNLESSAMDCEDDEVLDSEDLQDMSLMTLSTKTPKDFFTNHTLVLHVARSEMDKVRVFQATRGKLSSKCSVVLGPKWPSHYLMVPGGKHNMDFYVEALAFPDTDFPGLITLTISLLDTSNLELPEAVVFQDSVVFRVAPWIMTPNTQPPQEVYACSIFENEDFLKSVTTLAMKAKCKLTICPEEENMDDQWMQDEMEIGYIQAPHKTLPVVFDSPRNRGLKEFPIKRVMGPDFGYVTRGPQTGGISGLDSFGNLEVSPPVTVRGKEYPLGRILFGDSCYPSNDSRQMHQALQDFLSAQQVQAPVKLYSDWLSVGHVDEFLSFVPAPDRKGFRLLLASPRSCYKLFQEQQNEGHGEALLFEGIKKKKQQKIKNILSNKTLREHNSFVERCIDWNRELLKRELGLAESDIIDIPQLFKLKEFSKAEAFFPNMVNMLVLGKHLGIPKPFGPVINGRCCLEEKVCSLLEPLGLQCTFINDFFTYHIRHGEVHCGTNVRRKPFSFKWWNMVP

IC50 [nM]	SMILES
23	COc1cc(C(=O)N2C[C@H]3CC[C@@H]2[C@@H]3N)cc2nc(-c3cc4ccccc4n3CC3CC3)n(CC3CN(c4nccnc4C#N)C3)c12 [Example 64, 3-[3-({5-[(1R,4R,7R)-7-amino-2-azabicyclo[2.2.1]heptane-2-carbonyl]-2-[1-(cyclopropylmethyl)-1H-indol-2-yl]-7-methoxy-1H-1,3-benzodiazol-1-yl}methyl)azetidin-1-yl]pyrazine-2-carbonitrile]
28	COc1cc(C(=O)N2C[C@H]3CC[C@@H]2[C@@H]3N)cc2nc(-c3cc4ccccc4n3CC3CC3)n(CC3CN(c4cncc(C#N)n4)C3)c12 [Example 65, 6-[3-({5-[(1R,4R,7R)-7-amino-2-azabicyclo[2.2.1]heptane-2-carbonyl]-2-[1-(cyclopropylmethyl)-1H-indol-2-yl]-7-methoxy-1H-1,3-benzodiazol-1-yl}methyl)azetidin-1-yl]pyrazine-2-carbonitrile]
39	COc1cc(C(=O)N2C[C@H]3CC[C@@H]2[C@@H]3N)cc2nc(-c3cc4ccccc4n3CC3CC3)n(CC3CN(c4ccnc(C)n4)C3)c12 [Example 66, (1R,4R,7R)-2-{2-[1-(cyclopropylmethyl)-1H-indol-2-yl]-7-methoxy-1-{[1-(2-methylpyrimidin-4-yl)azetidin-3-yl]methyl}-1H-1,3-benzodiazole-5-carbonyl}-2-azabicyclo[2.2.1]heptan-7-amine]
40	COc1cc(C(=O)N2C[C@H]3CC[C@@H]2[C@@H]3N)cc2nc(-c3cc4ccccc4n3CC3CC3)n(CC3CN(c4cncc(C#N)c4)C3)c12 [Example 67, 5-[3-({5-[(1R,4R,7R)-7-amino-2-azabicyclo[2.2.1]heptane-2-carbonyl]-2-[1-(cyclopropylmethyl)-1H-indol-2-yl]-7-methoxy-1H-1,3-benzodiazol-1-yl}methyl)azetidin-1-yl]pyridine-3-carbonitrile]
124	COc1cc(C(=O)N2C[C@H]3CC[C@@H]2[C@@H]3N)cc2nc(-c3cc4cccnc4n3CC3CC3)n(C3CN(c4ccnc(C#N)n4)C3)c12 [Example 68, 4-(3-{5-[(1R,4R,7R)-7-amino-2-azabicyclo[2.2.1]heptane-2-carbonyl]-2-[1-(cyclopropylmethyl)-1H-pyrrolo[2,3-b]pyridin-2-yl]-7-methoxy-1H-1,3-benzodiazol-1-yl}azetidin-1-yl)pyrimidine-2-carbonitrile]
58	COc1cc(C(=O)N2C[C@H]3CC[C@@H]2[C@@H]3N)cc2nc(-c3cc4cccnc4n3CC3CC3)n(C3CN(c4cncc(C#N)n4)C3)c12 [Example 69, 6-(3-{5-[(1R,4R,7R)-7-amino-2-azabicyclo[2.2.1]heptane-2-carbonyl]-2-[1-(cyclopropylmethyl)-1H-pyrrolo[2,3-b]pyridin-2-yl]-7-methoxy-1H-1,3-benzodiazol-1-yl}azetidin-1-yl)pyrazine-2-carbonitrile]
87	COc1cc(C(=O)N2C[C@H]3CC[C@@H]2[C@@H]3N)cc2nc(-c3cc4cccnc4n3CC3CC3)n(C3CN(c4ccnc(C5CC5)n4)C3)c12 [Example 70, (1R,4R,7R)-2-{2-[1-(cyclopropylmethyl)-1H-pyrrolo[2,3-b]pyridin-2-yl]-1-[1-(2-cyclopropylpyrimidin-4-yl)azetidin-3-yl]-7-methoxy-1H-1,3-benzodiazole-5-carbonyl}-2-azabicyclo[2.2.1]heptan-7-amine]
111	COc1nccc(N2CC(n3c(-c4cc5cccnc5n4CC4CC4)nc4cc(C(=O)N5C[C@H]6CC[C@@H]5[C@@H]6N)cc(OC)c43)C2)n1 [Example 71, (1R,4R,7R)-2-{2-[1-(cyclopropylmethyl)-1H-pyrrolo[2,3-b]pyridin-2-yl]-7-methoxy-1-[1-(2-methoxypyrimidin-4-yl)azetidin-3-yl]-1H-1,3-benzodiazole-5-carbonyl}-2-azabicyclo[2.2.1]heptan-7-amine]
113	COc1cc(C(=O)N2C[C@H]3CC[C@@H]2[C@@H]3N)cc2nc(-c3cc4cccnc4n3CC3CC3)n(C3CN(c4nccc(C(=O)O)n4)C3)c12 [Example 72, 2-(3-{5-[(1R,4R,7R)-7-amino-2-azabicyclo[2.2.1]heptane-2-carbonyl]-2-[1-(cyclopropylmethyl)-1H-pyrrolo[2,3-b]pyridin-2-yl]-7-methoxy-1H-1,3-benzodiazol-1-yl}azetidin-1-yl)pyrimidine-4-carboxylic acid]
149	COc1cc(C(=O)N2C[C@H]3CC[C@@H]2[C@@H]3N)cc2nc(-c3cc4cccnc4n3CC3CC3)n(C3CN(c4cncc(C#N)c4)C3)c12 [Example 73, 5-(3-{5-[(1R,4R,7R)-7-amino-2-azabicyclo[2.2.1]heptane-2-carbonyl]-2-[1-(cyclopropylmethyl)-1H-pyrrolo[2,3-b]pyridin-2-yl]-7-methoxy-1H-1,3-benzodiazol-1-yl}azetidin-1-yl)pyridine-3-carbonitrile]
210	COc1cc(C(=O)N2C[C@H]3CC[C@@H]2[C@@H]3N)cc2nc(-c3cc4cccnc4n3CC3CC3)n(CC3CN(c4cnccn4)C3)c12 [Example 74, (1R,4R,7R)-2-{2-[1-(cyclopropylmethyl)-1H-pyrrolo[2,3-b]pyridin-2-yl]-7-methoxy-1-{[1-(pyrazin-2-yl)azetidin-3-yl]methyl}-1H-1,3-benzodiazole-5-carbonyl}-2-azabicyclo[2.2.1]heptan-7-amine]
216	COc1cc(C(=O)N2C[C@H]3CC[C@@H]2[C@@H]3N)cc2nc(-c3cc4cccnc4n3CC3CC3)n(C3CN(c4cnc(C#N)nc4)C3)c12 [Example 75, 5-(3-{5-[(1R,4R,7R)-7-amino-2-azabicyclo[2.2.1]heptane-2-carbonyl]-2-[1-(cyclopropylmethyl)-1H-pyrrolo[2,3-b]pyridin-2-yl]-7-methoxy-1H-1,3-benzodiazol-1-yl}azetidin-1-yl)pyrimidine-2-carbonitrile]
292	COc1cc(C(=O)N2C[C@H]3CC[C@@H]2[C@@H]3N)cc2nc(-c3cc4cccnc4n3CC3CC3)n(C3CN(c4cncnc4)C3)c12 [Example 76, (1R,4R,7R)-2-{2-[1-(cyclopropylmethyl)-1H-pyrrolo[2,3-b]pyridin-2-yl]-7-methoxy-1-[1-(pyrimidin-5-yl)azetidin-3-yl]-1H-1,3-benzodiazole-5-carbonyl}-2-azabicyclo[2.2.1]heptan-7-amine]
307	COc1cc(C(=O)N2C[C@H]3CC[C@@H]2[C@@H]3N)cc2nc(-c3cc4cccnc4n3CC3CC3)n(C3CN(c4ccnc(C)n4)C3)c12 [Example 77, (1R,4R,7R)-2-{2-[1-(cyclopropylmethyl)-1H-pyrrolo[2,3-b]pyridin-2-yl]-7-methoxy-1-[1-(2-methylpyrimidin-4-yl)azetidin-3-yl]-1H-1,3-benzodiazole-5-carbonyl}-2-azabicyclo[2.2.1]heptan-7-amine]
373	COc1cc(C(=O)N2C[C@H]3CC[C@@H]2[C@@H]3N)cc2nc(-c3cc4cccnc4n3C)n(CC3CN(c4cncnc4C#N)C3)c12 [Example 78, 5-[3-({5-[(1R,4R,7R)-7-amino-2-azabicyclo[2.2.1]heptane-2-carbonyl]-7-methoxy-2-{1-methyl-1H-pyrrolo[2,3-b]pyridin-2-yl}-1H-1,3-benzodiazol-1-yl}methyl)azetidin-1-yl]pyrimidine-4-carbonitrile]
400	COc1cc(C(=O)N2C[C@H]3CC[C@@H]2[C@@H]3N)cc2nc(-c3cc4cccnc4n3CC3CC3)n(CC3CN(c4nc(O)ncc4C#N)C3)c12 [Example 79, 4-[3-({5-[(1R,4R,7R)-7-amino-2-azabicyclo[2.2.1]heptane-2-carbonyl]-2-[1-(cyclopropylmethyl)-1H-pyrrolo[2,3-b]pyridin-2-yl]-7-methoxy-1H-1,3-benzodiazol-1-yl}methyl)azetidin-1-yl]-2-hydroxypyrimidine-5-carbonitrile]
403	COc1cc(C(=O)N2C[C@H]3CC[C@@H]2[C@@H]3N)cc2nc(-c3cc4cccnc4n3CC3CC3)n(C3CN(c4ncccn4)C3)c12 [Example 80, (1R,4R,7R)-2-{2-[1-(cyclopropylmethyl)-1H-pyrrolo[2,3-b]pyridin-2-yl]-7-methoxy-1-[1-(pyrimidin-2-yl)azetidin-3-yl]-1H-1,3-benzodiazole-5-carbonyl}-2-azabicyclo[2.2.1]heptan-7-amine]
403	COc1cc(C(=O)N2C[C@H]3CC[C@@H]2[C@@H]3N)cc2nc(-c3cc4cccnc4n3CC3CC3)n(C3CN(c4ccccc4)C3)c12 [Example 81, (1R,4R,7R)-2-{2-[1-(cyclopropylmethyl)-1H-pyrrolo[2,3-b]pyridin-2-yl]-7-methoxy-1-(1-phenylazetidin-3-yl)-1H-1,3-benzodiazole-5-carbonyl}-2-azabicyclo[2.2.1]heptan-7-amine]
424	COc1cc(C(=O)N2C[C@H]3CC[C@@H]2[C@@H]3N)cc2nc(-c3cc4cccnc4n3CC3CC3)n(C3CN(c4cnc(C#N)nc4)C3)c12 [Example 82, 5-(3-{5-[(1R,4R,7R)-7-amino-2-azabicyclo[2.2.1]heptane-2-carbonyl]-2-[1-(cyclopropylmethyl)-1H-pyrrolo[2,3-b]pyridin-2-yl]-7-methoxy-1H-1,3-benzodiazol-1-yl}azetidin-1-yl)pyrimidine-2-carbonitrile]
440	COc1cc(C(=O)N2C[C@H]3CC[C@@H]2[C@@H]3N)cc2nc(-c3cc4cccnc4n3C)n(CC3CN(c4ncccn4)C3)c12 [Example 83, (1R,4R,7R)-2-(7-methoxy-2-{1-methyl-1H-pyrrolo[2,3-b]pyridin-2-yl}-1-{[1-(pyrimidin-2-yl)azetidin-3-yl]methyl}-1H-1,3-benzodiazole-5-carbonyl)-2-azabicyclo[2.2.1]heptan-7-amine]
511	COc1cc(C(=O)N2C[C@H]3CC[C@@H]2[C@@H]3N)cc2nc(-c3cc4cccnc4n3CC3CC3)n(CC3CN(c4cncs4)C3)c12 [Example 84, (1R,4R,7R)-2-{2-[1-(cyclopropylmethyl)-1H-pyrrolo[2,3-b]pyridin-2-yl]-7-methoxy-1-{[1-(1,3-thiazol-5-yl)azetidin-3-yl]methyl}-1H-1,3-benzodiazole-5-carbonyl}-2-azabicyclo[2.2.1]heptan-7-amine]
